Source: ChEMBL document CHEMBL1159293, “Additional bioactive acetogenins, annomutacin and (2,4-trans and cis)-10R-annonacin-A-ones, from the leaves of Annona muricata” (J Nat Prod, 1995)
Converted amounts (≈) assume the structure as drawn.

Tests used:
[1] = tested on: MCF7; test: Cytotoxicity against human MCF7 cells after 7 days by MTT assay; type: functional; conditions: MCF7, 168 h, read-out: ED50 (the source's name)
[2] = tested on: HT-29; test: Cytotoxicity against human HT-29 cells after 7 days by MTT assay; type: functional; conditions: HT-29, 168 h, read-out: ED50 (the source's name)
[3] = tested on: Artemia; test: (§1) Toxicity to brine shrimp; type: organism-based; conditions: in vivo
[4] = tested on: A549; test: Cytotoxicity against human A549 cells after 7 days by MTT assay; type: functional; conditions: A549, 168 h, read-out: ED50 (the source's name)
[5] = as §1; type: organism-based; conditions: artemia, in vivo

Compound | EC50 [1] [µg/mL] | EC50 [2] [µg/mL] | LC50 [3] [×10⁻² ug/ml] | EC50 [4] [µg/mL] | LC50 [5] [µg/mL]
CCCCCCCCCCCC[C@H](O)[C@@H]1CC[C@@H]([C@@H](O)CCCCCCC(O)CCCCC[C@@H](O)CC2=C[C@H](C)OC2=O)O1 (stereo partly drawn) [ANNOMONTACIN] | > 1 | > 1 | 3.91 | 0.0157 (≈ 0.0251 µM) | –
CCCCCCCCCCCC[C@H](O)[C@H]1CC[C@H]([C@H](O)CCCC[C@H](O)CCCCC[C@@H]2C[C@H](CC(C)=O)C(=O)O2)O1 | 0.57 (≈ 0.955 µM) | > 1 | – | 0.174 (≈ 0.292 µM) | 0.112 (≈ 0.188 µM)
COc1cccc2c1C(=O)c1c(O)c3c(c(O)c1C2=O)C[C@@](O)(C(=O)CO)C[C@@H]3O[C@H]1C[C@H](N)[C@H](O)[C@H](C)O1 [DOXORUBICIN] | – | – | – | – | 0.313 (≈ 0.576 µM)
CCCCCCCCCCCC[C@H](O)[C@H]1CC[C@H]([C@H](O)CCCC[C@H](O)CCCCC[C@@H]2C[C@@H](CC(C)=O)C(=O)O2)O1 | 0.57 (≈ 0.955 µM) | > 1 | – | 0.174 (≈ 0.292 µM) | 0.112 (≈ 0.188 µM)
